Tests used:
Type in all cases: in vivo
MSA mice (tg+3NP) [1] = assay: Stride length test in MSA mouse model; conditions: high dose 180 μmol/kg p.o. twice daily, FIG. 3
Experimental: (§1) A total of 30 (PLP)-α-synuclein transgenic mice were used. Animals were housed at 12/12 hours dark/light cycle with free access to food and water in the animal facility of the Innsbruck Medical University. All experiments were performed in accordance with the Austrian law and after permission for animal experiments of the Federal Ministry for Education, Science, and Culture of Austria.
(§2) Low dose group (n=10) MSA mice (tg+3NP) treated with 1-(2-Isopropoxyethyl)-2-thioxo-1,2,3,5-tetrahydro-pyrrolo[3,2-d]pyrimidin-4-one (Compound I; prepared by AstraZeneca), 2×6 μmol/kg p.o.
(§3) High dose group (n=10) MSA mice (tg+3NP) treated with Compound I (prepared by AstraZeneca), 2×180 μmol/kg, p.o.
(§4) 1-(2-Isopropoxyethyl)-2-thioxo-1,2,3,5-tetrahydro-pyrrolo[3,2-d]pyrimidin-4-one (Compound I treatment) was started one week prior to the first 3NP intoxication and stopped three weeks after the first 3NP intoxication (see 3NP intoxication protocol below). […]
The stride length of the forelimbs and hindlimbs of the mice was measured after a habituation to the test for 3 days before its performance according to Fernagut et al. (Fernagut P O. et al. Neuroscience. 2002; 114:1005-17) with slight modification. […] After three runs, the stride length of the hindlimbs on each side was measured, excluding the beginning (7 cm) and the end (7 cm) of the run. The mean stride length for each limb was determined.

MSA mice (tg+3NP) [2] = assay: Open field activity (Flex Field Activity System) in MSA mouse model; conditions: high dose 180 μmol/kg p.o. twice daily, FIG. 2
Experimental: as §1, §2, §3
1-(2-Isopropoxyethyl)-2-thioxo-1,2,3,5-tetrahydro-pyrrolo[3,2-d]pyrimidin-4-one (Compound I treatment) was started one week prior to the first 3NP intoxication and stopped three weeks after the first 3NP intoxication (see 3NP intoxication protocol below). Animals underwent behavioral tests during week 3-4 after the beginning of the experiment. On day 28 animals were perfused under deep thiopental anesthesia and the brains were collected for histopathological analysis of neuronal loss and gliosis. […]

MSA mice (tg+3NP) [3] = assay: Neuropathology: immunohistochemistry and stereological neuron counts in MSA mouse model
Experimental: as §1, §2, §3
1-(2-Isopropoxyethyl)-2-thioxo-1,2,3,5-tetrahydro-pyrrolo[3,2-d]pyrimidin-4-one (Compound I treatment) was started one week prior to the first 3NP intoxication and stopped three weeks after the first 3NP intoxication (see 3NP intoxication protocol below). Animals underwent behavioral tests during week 3-4 after the beginning of the experiment. On day 28 animals were perfused under deep thiopental anesthesia and the brains were collected for histopathological analysis of neuronal loss and gliosis.
Mice were intoxicated chronically with 3NP with slowly increasing doses of toxin according to a previously used scheme (i.e. 4×10 mg/kg, 4×20 mg/kg, 4×40 mg/kg, 4×50 mg/kg intraperitoneal injections every 12th hour for a period of 8 days) to model MSA (Stefanova N. et al. Am. J. Pathol. 2005; 166:869-76)
The drug and vehicle (0.1 mol/L meglumine with 20% w/v hydroxypropyl-β-cyclodextrin, pH 10.8) were stored at 4° C. […]
(§5) Stereology was applied using a computer-assisted image analysis system (Nikon E-800 microscope, CCD video camera, Optronics MicroFire, Goleta, USA; Stereo Investigator Software, MicroBrightField Europe e.K., Magdeburg, Germany). […] Purkinje cells were counted in a region outlined to include only the Purkinje cell layer as previously reported (German D C. et al. Neuroscience. 2001; 105:999-1005). All data were expressed as mean value±SEM. […]

MSA mice (tg+3NP) [4] = assay: Motor clinical scale evaluation in MSA mouse model; conditions: p.o. twice daily, compared to vehicle treated mice, FIG. 1
Source text: A novel mouse model of MSA has been developed by inducing oxidative stress in transgenic mice with oligodendroglial α-synuclein expression (described herein). This model reproduces the cardinal neuropathological features of the disease including striatonigral degeneration (SND), olivopontocerebellar atrophy (OPCA), astrogliosis and microgliosis combined with oligodendroglial insoluble α-synuclein inclusions. Mitochondrial inhibition by 3NP in the presence of glial cytoplasmic inclusions in transgenic mice induces a selective neuronal cell death pattern typical for MSA in these animals (Stefanova N. et al. Am. J. Pathol. 2005; 166:869-76).
Thus, in the present invention, MPO inhibitors have been use to suppress MPO activity in an MSA mouse model consisting of an oligodendroglial α-SYN overexpression in transgenic mice exposed to mitochondrial inhibition by 3-nitropropionic acid (3NP). The effects were followed by application of established immunohistological and behavioral methods to evaluate the participation of MPO in the pathogenesis of MSA and the possible neuroprotective effects of in an MSA model.
A total of 30 (PLP)-α-synuclein transgenic mice were used. Animals were housed at 12/12 hours dark/light cycle with free access to food and water in the animal facility of the Innsbruck Medical University. […]

MSA mice (tg+3NP) [5] = assay: Microglial activation (optical density) in substantia nigra and striatum of MSA mice; conditions: high dose 180 μmol/kg p.o. twice daily, FIG. 6
Experimental: as §1, §2, §3, §4, §5

## CC(C)OCCn1c(=S)[nH]c(=O)c2[nH]ccc21 [Compound I, 1-(2-Isopropoxyethyl)-2-thioxo-1,2,3,5-tetrahydro-pyrrolo[3,2-d]pyrimidin-4-one]
MSA mice (tg+3NP) [1]
  stride length test performance (left and right hindlimbs): significant improvement
MSA mice (tg+3NP) [2]
  flex field performance (rearing and open field activity): significant improvement
MSA mice (tg+3NP) [3]; high dose 180 μmol/kg p.o. twice daily, FIG. 4
  striatonigral degeneration (TH immunopositive cells in substantia nigra, dopaminergic terminals in striatum, striatal DARPP-32 immunoreactive neurons): neuroprotective
MSA mice (tg+3NP) [3]; high dose 180 μmol/kg p.o. twice daily, FIG. 5
  olivopontocerebellar atrophy (inferior olivary complex, pontine nuclei, Purkinje cells in the cerebellum): neuroprotective
MSA mice (tg+3NP) [3]; summary of findings, dose not stated
  neuroprotection (neurons preserved in substantia nigra pars compacta, striatum, cerebellar cortex, pontine nuclei, inferior olivary complex): significant neuroprotection
MSA mice (tg+3NP) [4]
  mean daily motor score: significant improvement
MSA mice (tg+3NP) [5]
  microglial activation in substantia nigra and striatum: suppression of microglial activation

Source: patent publication US10772890B2, “Use of myeloperoxidase (MPO) inhibitors or pharmaceutically acceptable salts thereof to treat multiple system atrophy (MSA) 938” (ASTRAZENECA AB, priority 2007, dated 2020)
